This assay concerns ALP in NHAC (normal human articular chondrocytes). Nature of the assay: Alkaline Phosphatase (ALP) activity assay: ALP staining and quantitation in NHACs (prevention of chondrocyte hypertrophy). Type of assay: cell-based. Particulars: human IL-1 beta 10 ng/mL, 12 days; for pIC50: Fast Blue RR staining, high content imaging. A digest of the protocol: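 NHACs were plated with test compound in DMEM containing 10% FBS, and human IL-1 beta was added 5 h later at 10 ng/mL final. Cultures were kept 12 days at 37° C, 5% CO2. Cells were then fixed, ALP-stained with Fast Blue RR/Naphthol AS-MX, and hypertrophic cells were imaged and quantified by high-content imaging.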

Setting [1] is: Chondrocyte, 288 h, read-out: ALP in NHAC (% Efficacy).

pIC50: −log10 of the molar value. Read-outs that look alike come from different tables or passages of the source. A value given as a limit tells only on which side of the number the result lay.

Broadly, the pIC50 is −log10 of the IC50, conventionally taken in molar units. A lower pIC50 goes with a large IC50. On to `COc1cc([C@@]23C[C@]2(C(=O)Nc2cc(C#N)cc(C(F)(F)F)c2)[C@H]2C[C@H](O)[C@@H]3O2)ccn1` (racemic) [Example 72, rac-(1R,2R,4S,5R,6S)—N-(3-cyano-5-(trifluoromethyl)phenyl)-6-hydroxy-4-(2-methoxypyridin-4-yl)-8-oxatricyclo[3.2.1.02,4]octane-2-carboxamide], for which the pIC50 (Chondrocyte, 288 h) is below 4.52. Also, the Emax under setting [1] amounted to 37%.

Take `COc1cc([C@@]23C[C@]2(C(=O)Nc2cc(F)cc(C(F)(F)F)c2)[C@H]2C[C@H](O)[C@@H]3O2)ccn1` (racemic) [Example 73, rac-(1R,2R,4S,5R,6S)—N-(3-fluoro-5-(trifluoromethyl)phenyl)-6-hydroxy-4-(2-methoxypyridin-4-yl)-8-oxatricyclo[3.2.1.02,4]octane-2-carboxamide]: the pIC50 (Chondrocyte, 288 h) is below 4.52. For the same compound, the Emax under setting [1] is 49%.

`COc1cc([C@@]23C[C@]2(C(=O)Nc2ccc(C(F)(F)F)c(Cl)c2)[C@H]2C[C@H](O)[C@@H]3O2)ccn1` (racemic) [Example 74, rac-(1R,2R,4S,5R,6S)—N-(3-chloro-4-(trifluoromethyl)phenyl)-6-hydroxy-4-(2-methoxypyridin-4-yl)-8-oxatricyclo[3.2.1.02,4]octane-2-carboxamide]: the pIC50 (Chondrocyte, 288 h) was 5.47. For the same compound, the Emax under setting [1] was determined as 77%.

For `COc1cc([C@@]23C[C@]2(C(=O)Nc2ccc(C(F)(F)F)c(F)c2)[C@H]2C[C@H](O)[C@@H]3O2)ccn1` (racemic) [Example 75, rac-(1R,2R,4S,5R,6S)—N-(3-fluoro-4-(trifluoromethyl)phenyl)-6-hydroxy-4-(2-methoxypyridin-4-yl)-8-oxatricyclo[3.2.1.02,4]octane-2-carboxamide], the pIC50 (Chondrocyte, 288 h) was below 4.52. Besides, the Emax under setting [1] came to 26%.

Under “Chondrocyte, 288 h”, `COc1cc([C@@]23C[C@]2(C(=O)Nc2ccc(C(F)(F)F)cc2)[C@H]2C[C@H](O)[C@@H]3O2)ccn1` (racemic) [Example 76, rac-(1R,2R,4S,5R,6S)-6-hydroxy-4-(2-methoxypyridin-4-yl)-N-(4-(trifluoromethyl)phenyl)-8-oxatricyclo[3.2.1.02,4]octane-2-carboxamide] gave a negative logarithm of the IC50 (pIC50) of 4.82. For the same compound, the Emax under setting [1] amounted to 57%.

For `N#Cc1cc(NC(=O)[C@]23C[C@@]2(c2ccnc(F)c2)[C@H]2O[C@@H]3C[C@@H]2O)cc(C(F)(F)F)c1` (racemic) [Example 77, rac-(1R,2R,4S,5R,6S)—N-(3-cyano-5-(trifluoromethyl)phenyl)-4-(2-fluoropyridin-4-yl)-6-hydroxy-8-oxatricyclo[3.2.1.02,4]octane-2-carboxamide], the pIC50 (Chondrocyte, 288 h) was below 4.52. In addition, the Emax under setting [1] worked out at 29%.

The compound `N#Cc1ccc(C(F)(F)F)cc1NC(=O)[C@]12C[C@@]1(c1ccnc(F)c1)[C@H]1O[C@@H]2C[C@@H]1O` (racemic) [Example 78, rac-(1R,2R,4S,5R,6S)—N-(2-cyano-5-(trifluoromethyl)phenyl)-4-(2-fluoropyridin-4-yl)-6-hydroxy-8-oxatricyclo[3.2.1.02,4]octane-2-carboxamide] gave a pIC50 (Chondrocyte, 288 h) below 4.52. Under setting [1], the Emax was 40%.

As for `N#Cc1ccc(NC(=O)[C@]23C[C@@]2(c2cccc(C(F)(F)F)c2)[C@H]2O[C@@H]3C[C@@H]2O)cc1C(F)(F)F` (racemic) [Example 79, rac-(1R,2R,4S,5R,6S)—N-(4-cyano-3-(trifluoromethyl)phenyl)-6-hydroxy-4-(3-(trifluoromethyl)phenyl)-8-oxatricyclo[3.2.1.02,4]octane-2-carboxamide], the pIC50 (Chondrocyte, 288 h) was 5.00. Under setting [1], the Emax turned out to be 78%.

Where the note is “Chondrocyte, 288 h”, `N#Cc1ccc(C(F)(F)F)cc1NC(=O)[C@]12C[C@@]1(c1cccc(C(F)(F)F)c1)[C@H]1O[C@@H]2C[C@@H]1O` (racemic) [Example 80, rac-(1R,2R,4S,5R,6S)—N-(2-cyano-5-(trifluoromethyl)phenyl)-6-hydroxy-4-(3-(trifluoromethyl)phenyl)-8-oxatricyclo[3.2.1.02,4]octane-2-carboxamide] gave a pIC50 of 5.66. Also, the Emax under setting [1] came to 76%.

Turning to `O=C(Nc1cc(C(F)(F)F)ccc1F)[C@]12C[C@@]1(c1cccc(C(F)(F)F)c1)[C@H]1O[C@@H]2C[C@@H]1O` (racemic) [Example 81, rac-(1R,2R,4S,5R,6S)—N-(2-fluoro-5-(trifluoromethyl)phenyl)-6-hydroxy-4-(3-(trifluoromethyl)phenyl)-8-oxatricyclo[3.2.1.02,4]octane-2-carboxamide], the pIC50 (Chondrocyte, 288 h) is below 4.52. The Emax under setting [1] was determined as 47%.

Consider `O=C(Nc1cc(C(F)(F)F)ccn1)[C@]12C[C@@]1(c1cccc(C(F)(F)F)c1)[C@H]1O[C@@H]2C[C@@H]1O` (racemic) [Example 82, rac-(1R,2R,4S,5R,6S)-6-hydroxy-4-(3-(trifluoromethyl)phenyl)-N-(4-(trifluoromethyl)pyridin-2-yl)-8-oxatricyclo[3.2.1.02,4]octane-2-carboxamide], for which, where the note is “Chondrocyte, 288 h”, the pIC50 was below 4.52. For the same compound, the Emax under setting [1] came to 36%.

Regarding “(1R,2R,4S,5R,6S)—N-(2-cyano-5-(trifluoromethyl)phenyl)-6-hydroxy-4-(2-methoxypyridin-4-yl)-8-oxatricyclo[3.2.1.02,4]octane-2-carboxamide or (1S,2S,4R,5S,6R)—N-(2-cyano-5-(trifluoromethyl)phenyl)-6-hydroxy-4-(2-methoxypyridin-4-yl)-8-oxatricyclo[3.2.1.02,4]octane-2-carboxamide [Example 39a]”, the Emax result is on record as “(90) %” and the pIC50 was 6.54.

On to “(1R,2R,4S,5R,6S)—N-(2-cyano-5-(trifluoromethyl)phenyl)-6-hydroxy-4-(2-methoxypyridin-4-yl)-8-oxatricyclo[3.2.1.02,4]octane-2-carboxamide or (1S,2S,4R,5S,6R)—N-(2-cyano-5-(trifluoromethyl)phenyl)-6-hydroxy-4-(2-methoxypyridin-4-yl)-8-oxatricyclo[3.2.1.02,4]octane-2-carboxamide [Example 39b]”, for which the Emax result is reported as “(97) %” and the pIC50 was 6.60.
